# Measured values from patent US8816102B2, “Compounds” (Givaudan S.A., priority 2009, dated 2014).
# Legend:
# Design in all cases: species or system human
# [1] = Sensory panel tasting of 0.3% NaCl and 0.03% MSG solution with and without compound; settings: 0.3% NaCl, reference solution A: salty, umami, trained panel of 20 women
# Procedure: (§1) Two solutions were prepared:
# A a solution of 0.3% NaCl and 0.03% MSG
# B a solution of 0.3% NaCl and 0.03% MSG and 10 ppm Example 6 compound.
# (§2) The samples were tasted by a trained sensory panel composed of 20 women aged between 30 and 60.
# A a solution of 0.3% NaCl, 0.03% MSG
# B a solution of 0.3% NaCl, 0.03% MSG and 10 ppm N-heptyl-2-oxo-3-phenylpropionamide as prepared in example 9.
# B a solution of 0.3% NaCl, 0.03% MSG and 1 ppm N-(4-heptyl)-2-oxo-3-phenylpropionamide as prepared in example 10.
# B a solution of 0.3% NaCl, 0.03% MSG and 1 ppm N-heptyl 3-methoxy-4-hydroxy-mandelic acid as prepared in Example 8.
# [2] = Sensory panel tasting of 0.3% NaCl solution with and without compound; settings: 0.3% NaCl and 10 ppm compound; reference solution A (0.3% NaCl): salty; trained panel of 20 women
# Procedure: as §1
# A a solution of 0.3% NaCl
# B a solution of 0.3% NaCl and 10 ppm Example 1 compound
# as §2
# B a solution of 0.3% NaCl and 10 ppm Example 5 compound.
# [3] = Use in tomato ketchup, tasted by flavourists; settings: 4 flavourists
# Procedure: A tomato ketchup was prepared from 19% tomato paste (28-30% dry weight), 8% of vinegar (15%), 3% of sodium chloride, 20% of sugar and 50% of water.
# To one half of the batch was added 2 ppm of N-(4-heptyl) 2-(4-hydroxy-3-methyxophenol)-2-oxoacetamide (Example 5)
# A batch of tomato ketchup was prepared as described in Example 12. To one half of the batch was added 20 ppm N-(4-hepthyl) 4-hydroxy-3-methoxy-mandelic amide as prepared in Example 7.
# [4] = Use in tomato soup, tasted by flavourists; settings: tomato soup containing 10 ppm compound; 4 flavourists
# Procedure: A tomato soup mix was prepared from 9.4 g of sodium chloride, 1 g of mono sodium glutamate, 0.08 g ribonucleotides (ex yeast), 32 g of tomato powder (ex Spreda), 25.1 g of glucose, 21 g of starch (Ultrasperse 5 ex National Starch), 5 g of palm fat powder, 3 g of yeast powder, 1 g on onion powder, 0.15 g of carrot powder, 0.05 g of ground white pepper, 0.3 g celery extract powder, 0.05 g of ground laurel leaf powder, and 1.85 g of sucrose. 25 G of the well mixed ingredients was added to 250 g of boiling water and stirred until completely dissolved.
# The reference soup was compared with a batch of the same soup containing 10 ppm of N-(2-hydroxyethyl)-2-(benzo[1,3]dioxol-5-yl)-2-oxoacetamide as prepared in example 2.
# [5] = Use in potato chips, tasted by trained sensory panel
# Procedure: Plain potato chips were prepared.
# One part was flavoured with 1.2% sodium chloride (sample A)
# One part was flavoured with 1.2% sodium chloride and 0.3% MSG (sample b)
# One part was flavoured with 1.2% sodium chloride and 2.5 ppm N-(4-heptyl)-2-(benzo[1,3]dioxol-5-yl)-2-oxo-acetamide as prepared in example 3 (sample C).
# as §2
smiles,measurement,setting,value
"CCCCCCCNC(=O)C(O)c1ccc(O)c(OC)c1 (stereo not shown) [Example 8, N-heptyl-2-hydroxy-2-(4-hydroxy-3-methoxyphenyl)acetamide]",taste description of solution B,[1]; 0.03% MSG and 1 ppm compound,"salty, more umami, slightly pungent"
"CCCC(CCC)NC(=O)C(=O)Cc1ccccc1 [Example 10, N-(heptan-4-yl)-2-oxo-3-phenylpropanamide]",taste description of solution B,[1]; 0.03% MSG and 1 ppm compound,"salty, more umami, more bouillon-like, slightly tingling"
"CCCCCCCNC(=O)C(=O)Cc1ccccc1 [Example 9, N-heptyl-2-oxo-3-phenylpropanamide]",taste description of solution B,[1]; 0.03% MSG and 10 ppm compound,"salty, stronger umami, more bouillon-like"
"CC(=O)C(=O)NCCO [Example 6, N-(2-hydroxyethyl)-2-oxopropanamide]",taste description of solution B,[1]; 0.03% MSG and 10 ppm compound,"more salty, more umami"
"CCCCCCCNC(=O)C(=O)c1ccc(O)c(OC)c1 [Example 5, N-heptyl-2-(4-hydroxy-3-methoxyphenyl)-2-oxoacetamide]",taste description of solution B,[2],"more salty, salivating, lingering"
same,taste of test ketchup compared with base ketchup,[3]; tomato ketchup with 2 ppm compound,"clearly more umami, more sweet and more full/complex"
"O=C(NCCO)C(=O)c1ccc2c(c1)OCO2 [Example 2, 2-(benzo[d][1.3]dioxol-5-yl)-N-(2-hydroxyethyl)-2-oxoacetamide]",taste of test soup compared with base soup,[4],"more umami, was more lingering and was more complex"
"CCCC(CCC)NC(=O)C(O)c1ccc(O)c(OC)c1 (stereo not shown) [Example 7, N-(heptan-4-yl)-2-hydroxy-2-(4-hydroxy-3-methoxyphenyl)acetamide]",taste of test ketchup compared with base ketchup,[3]; tomato ketchup with 20 ppm compound,"more umami, more bouillon-like and more full/complex"
"N[C@@H](CCC(=O)O)C(=O)[O-].[Na+] [MSG, monosodium glutamate, reference compound]",taste description of potato chips sample B,[5]; 1.2% sodium chloride and 0.3% MSG,salty and umami
"CCCC(CCC)NC(=O)C(=O)c1ccc2c(c1)OCO2 [Example 3, 2-(benzo[d][1,3]dioxol-5-yl)-N-(heptan-4-yl)-2-oxoacetamide]",taste description of potato chips sample C,"[5]; 1.2% sodium chloride and 2.5 ppm compound, sample A (1.2% sodium chloride): salty","salty, umami, long lasting, savoury, bouillon"
same,panel preference,[5]; sample C (1.2% sodium chloride and 2.5 ppm compound) versus samples A and B,preferred over the other two samples
same,off-note observed,"[5]; sample C, 1.2% sodium chloride and 2.5 ppm compound",slight bitter off-note
"O=C(NCCO)C(=O)c1ccccc1 [Example 1, N-(2-hydroxyethyl)-2-oxo-2-phenylacetamide]",taste description of solution B,[2],"more salty, salivating"
